# Results taken from PMC9781916, “Antipsychotic- and Anxiolytic-like Properties of a Multimodal Compound JJGW08 in Rodents” (International Journal of Molecular Sciences, 2022).
# Legend:
# [1] = biological target: T1, human D2 receptor (Homo sapiens, UniProt P14416); test: Functional assay (aequorin, calcium mobilization) in CHO-K1 cells, D2 receptor; format: cell-based; set-up: Emax: dose or concentration left out as unconfirmed; details: CHO-K1, read-out: Antagonist Mode Emax%
# T1 construct: host or cells: CHO-K1
# T1 sequence (P14416 whole entry): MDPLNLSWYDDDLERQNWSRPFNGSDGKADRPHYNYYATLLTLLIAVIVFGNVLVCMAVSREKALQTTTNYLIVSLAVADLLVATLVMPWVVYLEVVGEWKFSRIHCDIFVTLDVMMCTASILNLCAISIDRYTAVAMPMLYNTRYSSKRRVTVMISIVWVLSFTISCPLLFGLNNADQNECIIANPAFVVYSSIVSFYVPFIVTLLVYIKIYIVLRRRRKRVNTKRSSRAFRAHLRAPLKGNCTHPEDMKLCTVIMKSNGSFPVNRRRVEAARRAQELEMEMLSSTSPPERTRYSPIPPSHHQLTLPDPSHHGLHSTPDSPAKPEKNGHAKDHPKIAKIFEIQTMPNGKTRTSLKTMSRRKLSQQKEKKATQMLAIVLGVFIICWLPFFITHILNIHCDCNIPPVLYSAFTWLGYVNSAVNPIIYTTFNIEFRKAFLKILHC
# Experimental: (§3) Tested and reference compounds were dissolved in dimethyl sulfoxide (DMSO) at a concentration of 10 mM. Serial dilutions were prepared in a 96-well microplate in assay buffer, and 8 to 10 concentrations were tested. […] The assay was executed according to the previously described protocol [45]. After thawing, cells were transferred to assay buffer (DMEM/HAM’s F12 with 0.1% protease-free BSA) and centrifuged. The cell pellet was resuspended in assay buffer, and coelenterazine h was added at final concentrations of 5 µM. The cell suspension was incubated at 16 °C (or 21 °C), protected from light with constant agitation for 16 h (or 4 h), and then diluted with assay buffer to the concentration of 100,000 cells/mL (or 250,000 cells/mL). After 1 h of incubation, 50 µL of the cell’s suspension was dispensed using automatic injectors built into the radiometric and luminescence plate counter MicroBeta2 LumiJET (PerkinElmer, Waltham, NA, USA) into white opaque 96-well microplates preloaded with test compounds. Immediate light emission generated following calcium mobilization was recorded for 30 s. In antagonist mode, after 25–30 min of incubation, the reference agonist was added to the above assay mix, and light emission was re-recorded. […] IC50 and EC50 values were calculated.
# [2] = biological target: T2, human serotonin 5-HT1A receptor (Homo sapiens, UniProt P08908); test: Functional assay (aequorin, calcium mobilization) in CHO-K1 cells, 5-HT1A receptor; format: cell-based; details: CHO-K1, agonist mode
# T2 construct: host or cells: CHO-K1
# T2 sequence (P08908 1-422): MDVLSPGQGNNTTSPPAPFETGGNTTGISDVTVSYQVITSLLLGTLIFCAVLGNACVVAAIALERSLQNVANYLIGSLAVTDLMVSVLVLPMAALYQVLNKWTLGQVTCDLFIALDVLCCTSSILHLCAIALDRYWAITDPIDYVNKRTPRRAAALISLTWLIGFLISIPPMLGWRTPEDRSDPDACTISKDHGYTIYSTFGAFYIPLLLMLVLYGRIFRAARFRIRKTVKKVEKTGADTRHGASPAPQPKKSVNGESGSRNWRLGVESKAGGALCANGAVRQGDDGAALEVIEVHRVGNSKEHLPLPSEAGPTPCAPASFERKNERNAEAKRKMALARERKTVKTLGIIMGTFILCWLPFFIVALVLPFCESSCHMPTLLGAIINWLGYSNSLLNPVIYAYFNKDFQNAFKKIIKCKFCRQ
# Experimental: as §3
# [3] = test system: mice; test: MK-801-induced hyperlocomotion test in mice; format: in vivo; details: MK-801 0.2 mg/kg ip
# Experimental: (§1) Locomotor activity was recorded in actometers separately for each mouse. After 30 min of adaptation, the number of crossings of photo beams was measured during 60 min. […] MK-801 (0.2 mg/kg, ip) was administered 15 min before the experiment, while amphetamine (2.5 mg/kg) was administered subcutaneously (sc) 30 min before the experiment. […] Values are expressed as means ± SD, n = 8–10 mice per group. Statistical analysis: one-way ANOVA (Newman–Keuls post hoc), * p < 0.05, ** p < 0.01, *** p < 0.001.
# (§2) The test was performed according to the method described by Carlsson et al.. The mobility of the animals was measured in actometers, i.e., in plastic Opto M3 cages (22 × 12 × 13 cm) connected to a computer with MultiDevice Software v.1.30 (Columbus Instruments, Columbus, OH, USA). The experimental cages were equipped with infrared sources on one side and sensors receiving the emitted rays on the other side of the cage. The crossing of each beam of infrared rays was classified as motor activity. The animals were placed individually in experimental cages immediately after administration of the tested compound, 30 min before the start of the test, to adapt to the new conditions and exclude the occurrence of hyperactivity caused by the change of the environment. Spontaneous locomotor activity was measured every 5 min for 60 min. Mice received two injections: of the tested compound or reference substance (30 min before the test, ip) and of amphetamine (2.5 mg/kg, 30 min before the test, sc) or MK-801 (0.2 mg/kg, 15 min before the test, ip). Control groups received an injection of saline and amphetamine or MK-801, or two injections of saline, respectively. Olanzapine was used as a reference compound.
# [4] = test system: mice; test: Amphetamine-induced hyperlocomotion test in mice; format: in vivo; details: amphetamine 2.5 mg/kg sc
# Experimental: as §1, §2
# [5] = set-up: method as in earlier work; details: ref 43 (Bubeníková et al.); cited from earlier work
# [6] = test system: mice; test: Marble burying test in mice; format: in vivo
# Experimental: Figure 3 The effect of JJGW08 and aripiprazole on the number of buried marbles by mice. Mice were placed individually in cages with a 5 cm bedding layer, where 20 glass balls were placed. The number of buried marbles after 30 min of the test was counted. JJGW08 was administered intraperitoneally (ip) 30 min before the test. The control group received 0.9% NaCl solution (ip) or 1% Tween (ip) for aripiprazole. Values are expressed as means ± SD in the case of one-way ANOVA (aripiprazole) or median with interquartile range in the case of Kruskal–Wallis test (JJGW08), n = 8–10 mice per group. Statistical analysis: one-way ANOVA (Newman–Keuls post hoc), and Kruskal–Wallis test (Dunn post hoc), * p < 0.05, ** p < 0.01, *** p < 0.001.
# The test was conducted according to the method described by Broekkamp et al. with minor modifications. Mice were placed individually in plastic cages, identical to their home cages, that contained a layer of bedding and 20 glass balls (1.6 cm in diameter) arranged in a pattern 4 × 5. After 30 min of the experiment, the mice were removed from the cages, and the number of balls buried to at least 2/3 of their size was counted.
# [7] = test system: rats; test: Open field test after MK-801 administration in rats (MK-801-induced hyperlocomotion); format: in vivo; details: MK-801 0.3 mg/kg ip
# Experimental: Figure 4 The effect of JJGW08 and clozapine on MK-801-induced hyperlocomotion in rats. After the habituation period (30 min, 24 h before the test), locomotor activity was measured individually for each animal in the special apparatus. The walked distance (cm) was monitored at 10-min intervals for 30 min, using a computerized system that tracked the animals’ movement and behavior. JJGW08 and clozapine were administered intraperitoneally (ip) 30 or 60 min before the test, respectively, while MK-801 (0.3 mg/kg) was administered ip 15 min before the start of the experiment. The control group received 0.9% NaCl solution (ip) (or 1% Tween (ip) for clozapine) and MK-801 (0.3 mg/kg, ip). Values are expressed as mean ± SD, n = 7–8 rats per group. Statistical analysis: one-way ANOVA (Newman–Keuls post hoc) * p < 0.05, ** p < 0.01, *** p < 0.001.
# The experiment was evaluated according to the method described earlier. It was performed in a soundproof chamber with a 30-min habituation period 24 h before the procedure. The open field apparatus consisted of four black, octagonal, stainless steel arenas (diameter: 80 cm) with 30 cm high walls. Each arena was divided into a peripheral and central sector. The peripheral sector was defined as the region within 20 cm from the walls. The approximate light intensity was 15 lx in the central point of the arena and 4 lx close to its walls.
# Individual rats were placed in the central part of the open field and allowed to explore the whole arena for 30 min under dim light (approximately 10 lx) and continuous white noise (65 dB). Forward locomotion (cm/30 min) was registered in 10-min intervals for 30 min and analyzed with the aid of a computerized video tracking system (Videomot, TSE, Bad Homburg, Germany). The arenas were cleaned between tests with 20% (v/v) alcohol and allowed to dry.
# The tested compound was administered ip 30 min before the experiment at the dose range of 0.3–30.0 mg/kg, and MK-801 (0.3 mg/kg,) was administered ip 15 min before the procedure. […]
# [8] = biological target: T3, human serotonin 5-HT2A receptor (Homo sapiens, UniProt P28223); format: cell-based; details: 5-HT2A
# T3 construct: host or cells: CHO-K1
# T3 sequence (P28223 whole entry): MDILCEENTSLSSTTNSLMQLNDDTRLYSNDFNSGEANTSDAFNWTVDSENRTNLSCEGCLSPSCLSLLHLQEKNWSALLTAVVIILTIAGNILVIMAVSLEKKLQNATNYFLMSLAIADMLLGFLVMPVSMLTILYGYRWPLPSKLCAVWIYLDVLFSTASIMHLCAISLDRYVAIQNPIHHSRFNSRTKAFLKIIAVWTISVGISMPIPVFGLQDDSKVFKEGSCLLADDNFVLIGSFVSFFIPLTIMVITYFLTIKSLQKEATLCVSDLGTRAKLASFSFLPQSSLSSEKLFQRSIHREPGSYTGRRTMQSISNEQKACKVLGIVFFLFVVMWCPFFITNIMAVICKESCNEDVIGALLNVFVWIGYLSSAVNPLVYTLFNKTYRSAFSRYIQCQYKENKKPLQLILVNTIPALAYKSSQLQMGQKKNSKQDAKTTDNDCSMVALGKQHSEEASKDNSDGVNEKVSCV
# Experimental: as §3
compound,measurement,setting,value
"CN1CCc2cccc3c2[C@H]1Cc1ccc(O)c(O)c1-3 [Apomorphine, reference compound]",Emax,[1],0%
"COc1ccccc1N1CCN(CCCCN2C(=O)c3ccccc3C2=O)CC1 [NAN-190, reference compound]",Emax,[2],6%
Cc1cc2c(s1)Nc1ccccc1N=C2N1CCN(C)CC1 [Olanzapine],reduction of MK-801-induced hyperlocomotion,[3]; 0.03 mg/kg ip,63%
same,reduction of MK-801-induced hyperlocomotion,[3]; 0.3 mg/kg ip,82%
same,reduction of amphetamine-induced hyperlocomotion,[4]; 0.03 mg/kg ip,54%
same,reduction of amphetamine-induced hyperlocomotion,[4]; 0.3 mg/kg ip,75%
same,effect on MK-801-induced deficits in the prepulse inhibition test (in words),[5],restored
O=C1CCc2ccc(OCCCCN3CCN(c4cccc(Cl)c4Cl)CC3)cc2N1 [aripiprazole],reduction of the number of buried marbles,[6]; 1.25 mg/kg ip,61%
same,reduction of the number of buried marbles,[6]; 2.5 mg/kg ip,69%
same,reduction of the number of buried marbles,[6]; 5.0 mg/kg ip,93%
CN1CCN(C2=Nc3cc(Cl)ccc3Nc3ccccc32)CC1 [clozapine],reduction of MK-801-induced hyperlocomotion in the open field,[7]; 10 mg/kg ip,53%
same,reduction of MK-801-induced hyperlocomotion in the open field,[7]; 30 mg/kg ip,98%
same,effect on MK-801-induced deficits in the prepulse inhibition test (in words),[5],restored
Cc1nc2n(c(=O)c1CCN1CCC(c3noc4cc(F)ccc34)CC1)CCCC2 [risperidone],effect on MK-801-induced deficits in the prepulse inhibition test (in words),[5],ineffective
"CC(N)Cc1c[nH]c2ccc(O)cc12 (stereo not drawn) [α-methylserotonin, reference compound]",Agonist Mode Emax%,[8]; agonist mode,100%
same,Agonist Mode pEC50 ± Range,[8]; agonist mode,8.5 ± 0.3
same,Antagonist Mode Emax%,"[8]; antagonist mode, 30 nM α-methylserotonin as reference agonist",2%
